One may read the IC50 as the concentration at which inhibition is half-maximal. High values mean lower potency, low ones higher potency.

Here are results for 44 molecules from ChEMBL document CHEMBL4665675 (J Med Chem, 2020).

Experiment [1] has as its system LoVo. In words: Antiproliferative activity against human LoVo cells incubated for 72 hrs by sulforhodamine B assay. The format is functional, cell-based. On the technique in general: In SRB staining, fixed cells bind dye roughly in proportion to their protein.
In experiment [2] the test system is A549. The experiment can be described thus: Antiproliferative activity against human A549 cells incubated for 72 hrs by sulforhodamine B assay. The format is functional, cell-based. Particulars: A549, 72 h.
Experiment [3] concerns MCF7. In words: Antiproliferative activity against human MCF7 cells incubated for 72 hrs by sulforhodamine B assay. Particulars: MCF7, 72 h. The format is functional, cell-based.
A short description of experiment [4]: Antiproliferative activity against human LoVo/DX cells incubated for 72 hrs by sulforhodamine B assay. The format is functional, cell-based.
For experiment [5], the system named is BALB/3T3. The experiment can be described thus: Cytotoxicity against mouse BALB/3T3 cells incubated for 72 hrs by sulforhodamine B assay. The format is cell-based. Conditions: BALB/3T3, 72 h.
The nature of experiment [6]: Antiproliferative activity against human ALL5 cells incubated for 120 hrs by MTT assay. The format is functional, cell-based. Particulars: ALL5, 120 h.
Experiment [7] relates to P388. In words: Antiproliferative activity against mouse P388 cells incubated for 72 hrs by Coulter counter method. The format is functional, cell-based. Particulars: P388, 72 h.
Experiment [8] deals with CCRF-CEM. The experiment can be described thus: Cytotoxicity against human CEM cells incubated for 48 to 72 hrs by Cell Titer 96 aqueous one solution cell proliferation assay. The format is functional, cell-based.
For experiment [9], the system named is Bel-7402. The experiment can be described thus: Cytotoxicity against human BEL7402 cells. The format is functional, cell-based.
For experiment [10], the system named is MCF7. In words: Cytotoxicity against human MCF7 cells. The format is functional, cell-based.
In experiment [11] the test system is A549. The experiment can be described thus: Cytotoxicity against human A549 cells. The format is functional, cell-based.
Experiment [12] has as its system A2780. The experiment can be described thus: Cytotoxicity against human A2780 cells. The format is functional, cell-based.
For experiment [13], the system named is HeLa. In words: Cytotoxicity against human HeLa cells after 24 to 72 hrs by Cell Titer Blue assay. The format is cell-based. (In general: Alamar Blue is a resazurin reagent that responds to reducing activity.)

Take `CCCCCCCCCC(=O)N[C@H]1CCc2c(Cl)c(OC)c(OC)c(OC)c2-c2ccc(SC)c(=O)cc21`: the IC50 in [1], in experiment [2], in experiment [3], in [4], in experiment [5] and in experiment [6] was 78 nM throughout.
`CCN(CC)C(=O)N[C@H]1CCc2c(Cl)c(OC)c(OC)c(OC)c2-c2ccc(SC)c(=O)cc21`: the IC50 in [1], in [2], in experiment [3], in [4], in experiment [5] and in experiment [6] was 27 nM each time.
Take `COc1c(Cl)c2c(c(OC)c1OC)-c1ccc(SC)c(=O)cc1[C@@H](NC(C)=O)CC2`: the IC50 was found to be 22 nM in [1]; 22 nM in [2]; 22 nM in experiment [3]; 111 nM in experiment [4]; 22 nM in [5].
As for `COc1c(Cl)c2c(c(OC)c1OC)-c1ccc(SC)c(=O)cc1[C@@H](NC(=O)OCC(F)(F)F)CC2`, the IC50 in experiment [1], in experiment [2], in experiment [3], in experiment [4] and in [5] was 7 nM throughout.
Take `COc1cccc2c1C(=O)c1c(O)c3c(c(O)c1C2=O)C[C@@](O)(C(=O)CO)C[C@@H]3O[C@H]1C[C@H](N)[C@H](O)[C@H](C)O1` [DOXORUBICIN]: the IC50 in [2], in experiment [4] and in [5] was 92 nM in each case.
Regarding `COc1c(F)c2c(c(OC)c1OC)-c1ccc(SC)c(=O)cc1[C@@H](NC(C)=O)CC2`, the IC50 in [1] was 21 nM; in experiment [2], 11 nM; in [3], 10 nM; in experiment [4], 398 nM; in experiment [5] it was 114 nM.
In [7], `COc1cc2c(c(OC)c1OC)-c1ccc(NC(C)C)c(=O)cc1[C@@H](NC(C)=O)CC2` displayed an IC50 of 48 nM.
In turn, `CCCOc1c(OC)c(OC)cc2c1-c1ccc(OC)c(=O)cc1[C@@H](NC(C)=O)CC2` yielded an IC50 in experiment [8] of 12 nM.
On the same count and under the same terms, the figure for `COCCOc1c(OC)c(OC)cc2c1-c1ccc(OC)c(=O)cc1[C@@H](NC(C)=O)CC2` is 12 nM.
As for `COc1cc2c(c(OC)c1OC)-c1ccc(NCCCN(C)C)c(=O)cc1[C@@H](NC(C)=O)CC2`, the IC50 in experiment [7] is above 10000 nM.
The same measure, in the same setting: the figure for `CCNc1ccc2c(cc1=O)[C@@H](NC(C)=O)CCc1cc(OC)c(OC)c(OC)c1-2` is 29 nM.
As for `CCOC(=O)N[C@H]1CCc2c(Cl)c(OC)c(OC)c(OC)c2-c2ccc(SC)c(=O)cc21`, the IC50 in [1], in experiment [2], in experiment [3], in experiment [4] and in [5] was 8 nM each time.
As for `COc1cc2c(c(OCc3ccccc3Cl)c1OC)-c1ccc(OC)c(=O)cc1[C@@H](NC(C)=O)CC2`, the midpoint of inhibition in experiment [8], the IC50, lay at 12 nM.
As for `COc1cc2c(c(OC)c1OC)-c1ccc(NCCOC(=O)CCC(=O)OCCCCO[N+](=O)[O-])c(=O)cc1[C@@H](NC(C)=O)CC2`, the IC50 in experiment [9] is 40 nM; in [10], 40 nM; in experiment [11], 40 nM; in experiment [12] it was 20 nM.
Take `COc1c(Cl)c2c(c(OC)c1OC)-c1ccc(SC)c(=O)cc1[C@@H](NC(=O)OCCO)CC2`: the IC50 in [1], in experiment [2], in experiment [3], in [4] and in experiment [5] was 40 nM throughout.
For the molecule `COc1c(Cl)c2c(c(OC)c1OC)-c1ccc(SC)c(=O)cc1[C@@H](NC(=O)OCCOCCO)CC2`, the IC50 in experiment [1], in experiment [2], in experiment [3], in [4] and in experiment [5] was 93 nM each time.
Regarding `COCC(=O)N[C@H]1CCc2c(Cl)c(OC)c(OC)c(OC)c2-c2ccc(SC)c(=O)cc21`, the IC50 in experiment [1], in experiment [2], in experiment [3], in experiment [4], in [5] and in [6] was 5 nM throughout.
In the case of `CCC(=O)N[C@H]1CCc2c(Cl)c(OC)c(OC)c(OC)c2-c2ccc(SC)c(=O)cc21`, the IC50 in experiment [1], in experiment [2], in [3], in experiment [4], in [5] and in experiment [6] was 2 nM in each case.
Turning to `COc1cc2c(c(OC)c1OC)-c1ccc(=N)c(O)cc1[C@@H](NC(C)=O)CC2`, inhibition in experiment [13] was half-maximal at 7 nM (IC50).
Take `COc1cc2c(c(OC)c1OC)-c1ccc(NCCOC(=O)CCC(=O)Oc3cccc(CO[N+](=O)[O-])c3)c(=O)cc1[C@@H](NC(C)=O)CC2`: the IC50 in experiment [9] was determined as 17 nM; in experiment [10], 17 nM; in [11], 17 nM; in experiment [12], 20 nM.
Take `COc1cc2c(c(OC)c1OC)-c1ccc(NCCOC(=O)CCC(=O)OCCCO[N+](=O)[O-])c(=O)cc1[C@@H](NC(C)=O)CC2`: the IC50 worked out at 40 nM in [9], 40 nM in experiment [10], 40 nM in [11] and 20 nM in [12].
With `COc1cc2c(c(OC(=O)C(C)C)c1OC)-c1ccc(OC)c(=O)cc1[C@@H](NC(C)=O)CC2`, 12 nM corresponded to half-maximal inhibition in experiment [8] (IC50).
`COc1c(Cl)c2c(c(OC)c1OC)-c1ccc(SC)c(=O)cc1[C@@H](NC(=O)C(C)C)CC2`: the IC50 in experiment [1], in experiment [2], in experiment [3], in experiment [4], in [5] and in [6] was 2 nM each time.
For `COc1cc2c(c(OC)c1OC)-c1ccc(NCCOC(=O)CCC(=O)OCCCCCO[N+](=O)[O-])c(=O)cc1[C@@H](NC(C)=O)CC2`, the IC50 in [9] came to 40 nM; in experiment [10] it was 40 nM; in [11] it was 40 nM; in experiment [12], 20 nM.
For `CCCNc1ccc2c(cc1=O)[C@@H](NC(C)=O)CCc1cc(OC)c(OC)c(OC)c1-2`, the IC50 in experiment [7] stood at 36 nM.
Same read-out and setting: the value for `CCCCNc1ccc2c(cc1=O)[C@@H](NC(C)=O)CCc1cc(OC)c(OC)c(OC)c1-2` was 240 nM.
In turn, `CCOc1c(OC)c(OC)cc2c1-c1ccc(OC)c(=O)cc1[C@@H](NC(C)=O)CC2` yielded an IC50 in experiment [8] of 12 nM.
Consider `COc1c(Cl)c2c(c(OC)c1OC)-c1ccc(SC)c(=O)cc1[C@@H](N)CC2`, for which the IC50 in experiment [1], in experiment [2], in [3], in experiment [4] and in experiment [5] was 98 nM throughout.
Turning to `COc1cc2c(c(OCc3ccc(Cl)cc3)c1OC)-c1ccc(OC)c(=O)cc1[C@@H](NC(C)=O)CC2`, the IC50 in experiment [8] amounted to 12 nM.
Same read-out and setting: the value for `CCC(=O)Oc1c(OC)c(OC)cc2c1-c1ccc(OC)c(=O)cc1[C@@H](NC(C)=O)CC2` was 12 nM.
Take `COc1c(Cl)c2c(c(OC)c1OC)-c1ccc(SC)c(=O)cc1[C@@H](NC(=O)c1ccccc1)CC2`: the IC50 in experiment [1], in experiment [2], in [3], in [4], in experiment [5] and in [6] was 7 nM each time.
For the molecule `C=COc1c(OC)c(OC)cc2c1-c1ccc(OC)c(=O)cc1[C@@H](NC(C)=O)CC2`, in [8], the IC50 turned out to be 12 nM.
`COc1c(I)c2c(c(OC)c1OC)-c1ccc(SC)c(=O)cc1[C@@H](NC(C)=O)CC2`: the IC50 is 7 nM in [1]; 11 nM in experiment [2]; 17 nM in experiment [3]; 642 nM in experiment [4]; 115 nM in experiment [5].
In experiment [7], `COc1cc2c(c(OC)c1OC)-c1ccc(NN(C)C)c(=O)cc1[C@@H](NC(C)=O)CC2` showed a half-inhibitory concentration (IC50) of 25 nM.
`COc1cc2c(c(O)c1OC)-c1ccc(OC)c(=O)cc1[C@@H](NC(C)=O)CC2` came in with an IC50 in experiment [8] of 15 nM.
`CCCCOC(=O)N[C@H]1CCc2c(Cl)c(OC)c(OC)c(OC)c2-c2ccc(SC)c(=O)cc21`: the IC50 in [1], in [2], in [3], in experiment [4] and in experiment [5] was 20 nM in each case.
`COC(=O)N[C@H]1CCc2c(Cl)c(OC)c(OC)c(OC)c2-c2ccc(SC)c(=O)cc21`: the IC50 in [1], in [2], in [3], in experiment [4] and in [5] was 11 nM each time.
`COc1cc2c(c(OCc3cccc(Cl)c3)c1OC)-c1ccc(OC)c(=O)cc1[C@@H](NC(C)=O)CC2` came in with an IC50 in experiment [8] of 12 nM.
Turning to `CCCOC(=O)N[C@H]1CCc2c(Cl)c(OC)c(OC)c(OC)c2-c2ccc(SC)c(=O)cc21`, the IC50 in experiment [1], in experiment [2], in [3], in [4] and in experiment [5] was 8 nM in each case.
Regarding `COc1c(Br)c2c(c(OC)c1OC)-c1ccc(SC)c(=O)cc1[C@@H](NC(C)=O)CC2`, the figures for the IC50 in experiment [1] and in experiment [4] were 14 nM and 135 nM, respectively.
For the molecule `COc1c(Cl)c2c(c(OC)c1OC)-c1ccc(SC)c(=O)cc1[C@@H](NC(=O)CCCCl)CC2`, the IC50 in experiment [1], in experiment [2], in experiment [3], in experiment [4], in experiment [5] and in experiment [6] was 10 nM each time.
As to `COc1cc2c(c(OC)c1OC)-c1ccc(NCC(C)C)c(=O)cc1[C@@H](NC(C)=O)CC2`, 320 nM corresponded to half-maximal inhibition in experiment [7] (IC50).
Consider `COc1c(Cl)c2c(c(OC)c1OC)-c1ccc(SC)c(=O)cc1[C@@H](NC(=O)OC(C)C)CC2`, for which the half-maximal inhibitory concentration (IC50) in experiment [1], in experiment [2], in experiment [3], in [4] and in experiment [5] was 20 nM each time.
`CNc1ccc2c(cc1=O)[C@@H](NC(C)=O)CCc1cc(OC)c(OC)c(OC)c1-2` returned an IC50 in experiment [7] of 29 nM.
